Several values for one entry are separate records, joined by “and”; a condition that tells them apart may be missing. Identical values can stand only once.
Conditions: for Critical pressure / Critical temperature: pulse heating method

COC(=O)CC(=O)OC [dimethyl 1,3-propanedioate]
Liquid, Transpiration method
Conditions | vapor or sublimation pressure [kPa]
278.2 K | 0.0117
281.2 K | 0.01507
284.3 K | 0.01969
287.2 K | 0.02593
290.8 K | 0.03523
293.2 K | 0.04253
296.1 K | 0.0533
298 K | 0.06386
299.4 K | 0.06974
302.2 K | 0.08729
303.3 K | 0.09423
305.3 K | 0.1063
308.4 K | 0.1313
311.2 K | 0.165
314.3 K | 0.2046

Liquid
Conditions | Critical pressure [kPa] | Critical temperature [K]
– | 3530 | 649

COC(=O)CCC(=O)OC [dimethyl 1,4-butanedioate]
Liquid, Transpiration method
Conditions | vapor or sublimation pressure [kPa]
286.4 K | 0.01062
289.4 K | 0.01389
292.3 K | 0.01793
295.2 K | 0.02339
298.1 K | 0.0292
301.1 K | 0.03798
304.2 K | 0.04988
307.2 K | 0.06242
310.2 K | 0.07685
313.2 K | 0.09759
316.2 K | 0.1187
319.2 K | 0.1462
322.3 K | 0.1846
325.3 K | 0.2206
328.3 K | 0.2686
331.4 K | 0.3232
334.5 K | 0.395
337.5 K | 0.4891
340.6 K | 0.6151

Liquid
Conditions | Critical pressure [kPa] | Critical temperature [K]
– | 3060 | 662

COC(=O)CCCCC(=O)OC [dimethyl 1,6-hexanedioate]
Liquid
Conditions | vapor or sublimation pressure
294.2 K | 0.00284 kPa
297.1 K | 0.00356 kPa
297.4 K | 0.00377 kPa
298.1 K | 0.00391 kPa
300.6 K | 0.00505 kPa
303.1 K | 0.00619 kPa
303.3 K | 0.00649 kPa
305.4 K | 0.00775 kPa
308.1 K | 0.00948 kPa and 0.00946 kPa
311.6 K | 0.01308 kPa
313.2 K | 0.01501 kPa
314.4 K | 0.01648 kPa
317.2 K | 0.02059 kPa
318.2 K | 0.02254 kPa
318.5 K | 0.02198 kPa
320.2 K | 0.02543 kPa
323.3 K | 0.03244 kPa
323.4 K | 0.03434 kPa
326.2 K | 0.03996 kPa
328.3 K | 0.05027 kPa
332.2 K | 0.06088 kPa
333.2 K | 0.07135 kPa
334.3 K | 0.07203 kPa
337.4 K | 0.08819 kPa
338.5 K | 0.1013 kPa and 0.1038 kPa
340.2 K | 0.1114 kPa
343.5 K | 0.1393 kPa and 0.1369 kPa
348.5 K | 0.1893 kPa
348.6 K | 0.2004 kPa
351.7 K | 0.2406 kPa
353.6 K | 0.2604 kPa
358.6 K | 0.3551 kPa and 0.3732 kPa
361.7 K | 0.446 kPa
363.7 K | 0.4731 kPa
368.7 K | 0.6312 kPa and 0.676 kPa
369.7 K | 0.6863 kPa
373.8 K | 0.8347 kPa and 0.8876 kPa

Liquid
Conditions | Critical pressure [kPa] | Critical temperature [K]
– | 2500 | 692

COC(=O)CCCCCC(=O)OC [dimethyl 1,7-heptanedioate]
Liquid, Transpiration method
Conditions | vapor or sublimation pressure [kPa]
291.3 K | 0.0013
293.3 K | 0.00161
298.3 K | 0.00264
303.2 K | 0.00423
308.2 K | 0.00693
313.2 K | 0.01073
318.2 K | 0.01734
323.2 K | 0.02558
328.2 K | 0.03778
333.1 K | 0.0547
338.2 K | 0.0784
343.2 K | 0.1123
348.1 K | 0.1618
353.1 K | 0.2251

Liquid
Conditions | Critical pressure [kPa] | Critical temperature [K]
– | 2370 | 711

COC(=O)C(=O)OC [dimethyl ethanedioate]
Transpiration method
Conditions | vapor or sublimation pressure [kPa]
293.3 K, Crystal | 0.04995
296.3 K, Crystal | 0.06801
298.2 K, Crystal | 0.07959
301.2 K, Crystal | 0.1046
303.2 K, Crystal | 0.1298
306.2 K, Crystal | 0.178
308.2 K, Crystal | 0.2104
311.2 K, Crystal | 0.2873
313.2 K, Crystal | 0.3372
316.2 K, Crystal | 0.4466
318.3 K, Crystal | 0.5545
319.2 K, Crystal | 0.6006
321.2 K, Crystal | 0.7191
325.3 K, Crystal | 0.9657
330.4 K, Liquid | 1.399
333.2 K, Liquid | 1.612
335.2 K, Liquid | 1.819
337.2 K, Liquid | 2.022
340.3 K, Liquid | 2.395
343.2 K, Liquid | 2.841
345.3 K, Liquid | 3.144
346.2 K, Liquid | 3.25
349.2 K, Liquid | 3.905
350.4 K, Liquid | 4.141
352.2 K, Liquid | 4.479
355.5 K, Liquid | 5.325
357.2 K, Liquid | 5.707
359.2 K, Liquid | 6.28
360.6 K, Liquid | 6.526
362.2 K, Liquid | 7.181
365.2 K, Liquid | 8.422

Liquid
Conditions | Critical pressure [kPa] | Critical temperature [K]
– | 4060 | 639

— the NIST ThermoML archive (doi:10.1021/je0602418)
